According to patent US12642805B2, “Use of oxygenated cholesterol sulfates for treating at least one of insulin resistance, diabetes, and prediabetes” (Medicis Pharmaceutical Corporation, priority 2020, dated 2026):
Read-outs that look alike come from different tables or passages of the source.

Key:
[1] = single oral dose pharmacokinetic study in healthy and NASH subjects; assay type: in vivo, human; settings: for AUC(0-t) / AUC(0-inf) / Cmax / half-life / Tmax / Vd/F: human, plasma, po
Method: The present Example was a randomized, dose ranging, single dose safety and pharmacokinetic study of 25HC3S administered to subjects with NASH and control healthy subjects. […] For each cohort, 10 subjects with NASH were enrolled which were further classified into cirrhotic and non-cirrhotic. Each subject received only one dose of study treatment. The second cohort was dosed after a review of safety and tolerability data from Cohort 1.

[2] = Sprague Dawley, rat, in vivo, iv, 10 mg/kg
Method: (§1) Samples were profiled using high performance liquid chromatography with radiodetection and metabolic characterization was performed using mass spectrometry and tandem mass spectrometry analysis.

[3] = metabolite profiling of plasma and feces after oral dose; assay type: in vivo, rat; settings: rats 75 mg/kg oral
From the text: Radiolabeled components in plasma and feces extracts were profiled and identified using radio-high performance liquid chromatography (HPLC) and high performance liquid chromatography/mass spectrometry (HPLC/MS) methods.

[4] = test system: DNMT1/3a/3b and 9 other epigenetic enzymes; assay: epigenetic enzyme activity panel; assay type: biochemical
From the text: The major epigenetic regulation includes DNA and histone methylation, demethylation, acetylation, and deacetylation. The enzymes involved in the process are DNA and histone methyltransferases/demethylases, and acetyltransferases/deacetylases.

[5] = metabolite profiling of plasma, urine, feces after intravenous dose; settings: rats 10 mg/kg intravenous 25HC3S
Method: as §1

[6] = 50 mg single oral dose, Healthy
[7] = 200 mg single oral dose, Healthy

C[C@H](CCCC(C)(C)O)[C@H]1CC[C@H]2[C@@H]3CC=C4C[C@@H](OS(=O)(=O)[O-])CC[C@]4(C)[C@H]3CC[C@]12C.[Na+] [25HC3S sodium, 25-hydroxycholesterol-3-sulfate sodium]
CL/F, Geometric Mean [1, 6]: 118.11 L/h
CL/F, Mean [1, 6]: 122.35 L/h
CL/F, Geometric Mean ([1]; 50 mg single oral dose, NASH): 82.19 L/h
CL/F, Mean ([1]; 50 mg single oral dose, NASH): 85.29 L/h
CL/F, Geometric Mean [1, 7]: 169.32 L/h
CL/F, Mean [1, 7]: 171.25 L/h
CL/F, Geometric Mean ([1]; 200 mg single oral dose, NASH): 141.66 L/h
CL/F, Mean ([1]; 200 mg single oral dose, NASH): 143.19 L/h
AUC(0-t) ([1]; 50 mg, 50 mg single oral dose, Healthy, read-out: AUC0-12, Geometric Mean): 497 ng·h/mL
AUC(0-t) ([1]; 50 mg, 50 mg single oral dose, Healthy, read-out: AUC0-12, Mean): 528 ng·h/mL
AUC(0-t) ([1]; 50 mg, 50 mg single oral dose, Healthy, read-out: AUC0-last, Geometric Mean): 450 ng·h/mL
AUC(0-t) ([1]; 50 mg, 50 mg single oral dose, Healthy, read-out: AUC0-last, Mean): 477 ng·h/mL
AUC(0-inf) ([1]; 50 mg, 50 mg single oral dose, Healthy, read-out: AUCinf, Geometric Mean): 423 ng·h/mL
AUC(0-inf) ([1]; 50 mg, 50 mg single oral dose, Healthy, read-out: AUCinf, Mean): 439 ng·h/mL
Cmax ([1]; 50 mg, 50 mg single oral dose, Healthy, read-out: Cmax, Geometric Mean): 90.9 ng/mL
Cmax ([1]; 50 mg, 50 mg single oral dose, Healthy, read-out: Cmax, Mean): 94 ng/mL
half-life ([1]; 50 mg, 50 mg single oral dose, Healthy, read-out: T1/2, Geometric Mean (converted)): 1.89 h
half-life ([1]; 50 mg, 50 mg single oral dose, Healthy, read-out: T1/2, Mean (converted)): 1.91 h
Tmax ([1]; 50 mg, 50 mg single oral dose, Healthy, read-out: Tmax, Geometric Mean): 2.83 h
Tmax ([1]; 50 mg, 50 mg single oral dose, Healthy, read-out: Tmax, Mean): 3.01 h
Vd/F ([1]; 50 mg, 50 mg single oral dose, Healthy, read-out: Vz/F, Geometric Mean): 322 L
Vd/F ([1]; 50 mg, 50 mg single oral dose, Healthy, read-out: Vz/F, Mean): 325 L
AUC(0-t) ([1]; 50 mg, 50 mg single oral dose, NASH, read-out: AUC0-12, Geometric Mean): 598 ng·h/mL
AUC(0-t) ([1]; 50 mg, 50 mg single oral dose, NASH, read-out: AUC0-12, Mean): 623 ng·h/mL
AUC(0-t) ([1]; 50 mg, 50 mg single oral dose, NASH, read-out: AUC0-last, Geometric Mean): 476 ng·h/mL
AUC(0-t) ([1]; 50 mg, 50 mg single oral dose, NASH, read-out: AUC0-last, Mean): 513 ng·h/mL
AUC(0-inf) ([1]; 50 mg, 50 mg single oral dose, NASH, read-out: AUCinf, Geometric Mean): 608 ng·h/mL
AUC(0-inf) ([1]; 50 mg, 50 mg single oral dose, NASH, read-out: AUCinf, Mean): 636 ng·h/mL
Cmax ([1]; 50 mg, 50 mg single oral dose, NASH, read-out: Cmax, Geometric Mean): 108 ng/mL
Cmax ([1]; 50 mg, 50 mg single oral dose, NASH, read-out: Cmax, Mean): 113 ng/mL
half-life ([1]; 50 mg, 50 mg single oral dose, NASH, read-out: T1/2, Geometric Mean (converted)): 1.67 h
half-life ([1]; 50 mg, 50 mg single oral dose, NASH, read-out: T1/2, Mean (converted)): 1.67 h
Tmax ([1]; 50 mg, 50 mg single oral dose, NASH, read-out: Tmax, Geometric Mean): 2.31 h
Tmax ([1]; 50 mg, 50 mg single oral dose, NASH, read-out: Tmax, Mean): 2.41 h
Vd/F ([1]; 50 mg, 50 mg single oral dose, NASH, read-out: Vz/F, Geometric Mean): 198 L
Vd/F ([1]; 50 mg, 50 mg single oral dose, NASH, read-out: Vz/F, Mean): 203 L
AUC(0-t) ([1]; 200 mg, 200 mg single oral dose, Healthy, read-out: AUC0-12, Geometric Mean): 1160 ng·h/mL
AUC(0-t) ([1]; 200 mg, 200 mg single oral dose, Healthy, read-out: AUC0-12, Mean): 1180 ng·h/mL
AUC(0-t) ([1]; 200 mg, 200 mg single oral dose, Healthy, read-out: AUC0-last, Geometric Mean): 1170 ng·h/mL
AUC(0-t) ([1]; 200 mg, 200 mg single oral dose, Healthy, read-out: AUC0-last, Mean): 1190 ng·h/mL
AUC(0-inf) ([1]; 200 mg, 200 mg single oral dose, Healthy, read-out: AUCinf, Geometric Mean): 1180 ng·h/mL
AUC(0-inf) ([1]; 200 mg, 200 mg single oral dose, Healthy, read-out: AUCinf, Mean): 1190 ng·h/mL
Cmax ([1]; 200 mg, 200 mg single oral dose, Healthy, read-out: Cmax, Geometric Mean): 256 ng/mL
Cmax ([1]; 200 mg, 200 mg single oral dose, Healthy, read-out: Cmax, Mean): 260 ng/mL
half-life ([1]; 200 mg, 200 mg single oral dose, Healthy, read-out: T1/2, Geometric Mean (converted)): 1.72 h
half-life ([1]; 200 mg, 200 mg single oral dose, Healthy, read-out: T1/2, Mean (converted)): 1.75 h
Tmax ([1]; 200 mg, 200 mg single oral dose, Healthy, read-out: Tmax, Geometric Mean): 2.53 h
Tmax ([1]; 200 mg, 200 mg single oral dose, Healthy, read-out: Tmax, Mean): 2.67 h
Vd/F ([1]; 200 mg, 200 mg single oral dose, Healthy, read-out: Vz/F, Geometric Mean): 420 L
Vd/F ([1]; 200 mg, 200 mg single oral dose, Healthy, read-out: Vz/F, Mean): 434 L
AUC(0-t) ([1]; 200 mg, 200 mg single oral dose, NASH, read-out: AUC0-12, Geometric Mean): 1500 ng·h/mL
AUC(0-t) ([1]; 200 mg, 200 mg single oral dose, NASH, read-out: AUC0-12, Mean): 1540 ng·h/mL
AUC(0-t) ([1]; 200 mg, 200 mg single oral dose, NASH, read-out: AUC0-last, Geometric Mean): 1540 ng·h/mL
AUC(0-t) ([1]; 200 mg, 200 mg single oral dose, NASH, read-out: AUC0-last, Mean): 1580 ng·h/mL
AUC(0-inf) ([1]; 200 mg, 200 mg single oral dose, NASH, read-out: AUCinf, Geometric Mean): 1410 ng·h/mL
AUC(0-inf) ([1]; 200 mg, 200 mg single oral dose, NASH, read-out: AUCinf, Mean): 1430 ng·h/mL
Cmax ([1]; 200 mg, 200 mg single oral dose, NASH, read-out: Cmax, Geometric Mean): 319 ng/mL
Cmax ([1]; 200 mg, 200 mg single oral dose, NASH, read-out: Cmax, Mean): 333 ng/mL
half-life ([1]; 200 mg, 200 mg single oral dose, NASH, read-out: T1/2, Geometric Mean (converted)): 2.2 h
half-life ([1]; 200 mg, 200 mg single oral dose, NASH, read-out: T1/2, Mean (converted)): 2.51 h
Tmax ([1]; 200 mg, 200 mg single oral dose, NASH, read-out: Tmax, Geometric Mean): 2.65 h
Tmax ([1]; 200 mg, 200 mg single oral dose, NASH, read-out: Tmax, Mean): 2.91 h
Vd/F ([1]; 200 mg, 200 mg single oral dose, NASH, read-out: Vz/F, Geometric Mean): 449 L
Vd/F ([1]; 200 mg, 200 mg single oral dose, NASH, read-out: Vz/F, Mean): 540 L

C[C@H](CCCC(C)(C)O)[C@H]1CC[C@H]2[C@@H]3CC=C4C[C@@H](O)CC[C@]4(C)[C@H]3CC[C@]12C [25HC, 25-Hydroxycholesterol, reference compound]
detection in plasma, urine, or feces samples [2]: Neither desmosterol sulfate nor 25-hydroxycholesterol was detected
relative observed intensity (ROI) in plasma ([3]; 2 hour post-dose): 37%
% of total dose in feces ([3]; pools 0 to 168 hours): 1.9%

C[C@@H](CO)CCC[C@@H](C)[C@H]1CC[C@H]2[C@@H]3CC=C4C[C@@H](O)CC[C@]4(C)[C@H]3CC[C@]12C [27HC, 27-Hydroxycholesterol]
effect on enzymatic activities [4]: no effect on other enzymes

CC(C)CCC[C@@H](C)[C@H]1CC[C@H]2[C@@H]3CC=C4C[C@@H](OS(=O)(=O)O)CC[C@]4(C)[C@H]3CC[C@]12C [Xol3S, Cholesterol 3-Sulfate]
effect on enzymatic activities [4]: did not significantly affect enzymatic activities

CC(C)CCC[C@@H](C)[C@H]1CC[C@H]2[C@@H]3CC=C4C[C@@H](O)CC[C@]4(C)[C@H]3CC[C@]12C [Xol, Cholesterol]
effect on enzymatic activities [4]: did not significantly affect enzymatic activities

desmosterol sulfate
detection in plasma, urine, or feces samples [5]: Neither desmosterol sulfate nor 25-hydroxycholesterol was detected
